Where a name gives a salt, the structure may show the parent alone. Read-outs that look alike come from different tables or passages of the source.
Tests used:
DEN2V NS2B-NS3pro [1] = target: T1, DEN2V NS2B-NS3pro (Dengue virus type 2, UniProt P29990); assay: Steady-state kinetics of DEN2V NS2B-NS3pro inhibition; assay type: biochemical, dengue 2 virus; settings: BOC-GRR-AMC 0 to 1.2 mM
WNV NS2B-NS3pro = WNV NS2B-NS3pro (West Nile virus, UniProt Q9Q6P4); assay: Steady-state kinetics of WNV NS2B-NS3pro inhibition; assay type: biochemical
WNV NS2B-NS3pro, sequence (Q9Q6P4 1428-1467): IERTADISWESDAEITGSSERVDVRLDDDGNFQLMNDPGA
WNV NS2B-NS3pro, sequence (Q9Q6P4 1506-1683): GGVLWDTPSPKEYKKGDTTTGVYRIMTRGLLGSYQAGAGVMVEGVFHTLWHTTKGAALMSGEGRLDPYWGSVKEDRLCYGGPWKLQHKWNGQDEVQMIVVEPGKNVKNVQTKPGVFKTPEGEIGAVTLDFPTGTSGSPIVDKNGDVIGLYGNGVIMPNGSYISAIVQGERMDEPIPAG

[2] = target: T2, bovine pancreatic trypsin (Bos taurus, UniProt P00760); assay: Single-point trypsin inhibition assay to validate selectivity; assay type: biochemical; settings: 100 μM compound; BOC-GRR-AMC 30 μM
T2 sequence (P00760 24-246): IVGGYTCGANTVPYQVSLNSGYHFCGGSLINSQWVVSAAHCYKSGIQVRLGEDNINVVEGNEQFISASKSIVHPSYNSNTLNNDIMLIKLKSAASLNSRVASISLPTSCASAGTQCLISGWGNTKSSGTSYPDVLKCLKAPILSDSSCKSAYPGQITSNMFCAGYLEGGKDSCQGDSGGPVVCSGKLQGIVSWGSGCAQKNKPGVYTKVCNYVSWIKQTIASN

DEN2V NS2B-NS3pro [3] = target: T1, DEN2V NS2B-NS3pro; assay: Single-point DEN2V NS2B-NS3pro inhibition assay to validate hits; assay type: biochemical, dengue 2 virus; settings: single-point validation assay
cells = settings: ref Yip et al., 2006; cited from earlier work
[4] = read-out: Ki1, DEN2V NS2B-NS3pro
[5] = read-out: Ki2, DEN2V NS2B-NS3pro

T1 sequence (P29990 1398-1437): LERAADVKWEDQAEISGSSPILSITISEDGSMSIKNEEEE
T1 sequence (P29990 1476-1653): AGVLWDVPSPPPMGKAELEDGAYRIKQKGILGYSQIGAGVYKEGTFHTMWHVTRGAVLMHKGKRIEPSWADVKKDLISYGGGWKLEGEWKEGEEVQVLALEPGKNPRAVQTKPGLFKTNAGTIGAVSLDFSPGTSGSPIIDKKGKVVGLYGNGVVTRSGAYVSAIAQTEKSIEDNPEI

With CC[C@H](C)[C@H]1O[C@]2(CC[C@@H]1C)C[C@@H]1C[C@@H](C/C=C(\C)[C@@H](O[C@H]3C[C@H](OC)[C@@H](O[C@H]4C[C@H](OC)[C@@H](O)[C@H](C)O4)[C@H](C)O3)[C@@H](C)/C=C/C=C3\CO[C@@H]4[C@H](O)C(C)=C[C@@H](C(=O)O1)[C@]34O)O2 [MS21, Ivermectin] the Mechanism (DEN2V NS2B-NS3pro [1]; DEN2V NS2B-NS3pro) was “mixed”, the Ki (DEN2V NS2B-NS3pro [1]; [4]) was 79 ± 21 µM and the Ki (DEN2V NS2B-NS3pro [1]; [5]) was 35 ± 4 µM. For the same compound, the Mechanism (WNV NS2B-NS3pro; WNV NS2B-NS3pro) was “mixed”, the Ki (WNV NS2B-NS3pro; read-out: Ki1, WNV NS2B-NS3pro) was 55 ± 18 µM and the Ki (WNV NS2B-NS3pro; read-out: Ki2, WNV NS2B-NS3pro) was 16 ± 4 µM. The trypsin inhibition [2] was “did not inhibit trypsin” and the “DEN2V protease inhibition (in words)” value (DEN2V NS2B-NS3pro [3]) was “inhibited DEN2V protease”.

With Cc1cc(C(C)(C)CC(C)(C)C)ccc1OCCOCC[N+](C)(C)Cc1ccccc1.[Cl-] [MS22, Methylbenzethonium chloride] the Mechanism (DEN2V NS2B-NS3pro [1]; DEN2V NS2B-NS3pro) was “mixed”, the Ki (DEN2V NS2B-NS3pro [1]; [4]) was 322 ± 81 µM and the Ki (DEN2V NS2B-NS3pro [1]; [5]) was 160 ± 39 µM. The Mechanism (WNV NS2B-NS3pro; WNV NS2B-NS3pro) was “mixed”, the Ki (WNV NS2B-NS3pro; read-out: Ki1, WNV NS2B-NS3pro) was 141 ± 20 µM and the Ki (WNV NS2B-NS3pro; read-out: Ki2, WNV NS2B-NS3pro) was 307 ± 80 µM. For the same compound, the trypsin inhibition [2] was “did not inhibit trypsin” and the “DEN2V protease inhibition (in words)” value (DEN2V NS2B-NS3pro [3]) was “inhibited DEN2V protease”.

In the case of CO[C@H]1C[C@H](O[C@@H]2/C(C)=C/C[C@@H]3C[C@@H](C[C@]4(CC[C@H](C)[C@@H](C5CCCCC5)O4)O3)OC(=O)[C@@H]3C=C(C)/C(=N/O)[C@H]4OC/C(=C\C=C\[C@@H]2C)[C@]43O)O[C@@H](C)[C@@H]1O [MS24, Selamectin], the Mechanism (DEN2V NS2B-NS3pro [1]; DEN2V NS2B-NS3pro) is reported as “mixed”, the Ki (DEN2V NS2B-NS3pro [1]; Ki2, DEN2V NS2B-NS3pro) is reported as 45 ± 8 µM and the Ki (WNV NS2B-NS3pro; Ki1, WNV NS2B-NS3pro) is reported as 15 ± 9 µM. The Ki (WNV NS2B-NS3pro; Ki2, WNV NS2B-NS3pro) was 28 ± 6 µM, the Mechanism (WNV NS2B-NS3pro; WNV NS2B-NS3pro) was “mixed” and the trypsin inhibition [2] was “did not inhibit trypsin”. For the same compound, the “DEN2V protease inhibition (in words)” value (DEN2V NS2B-NS3pro [3]) was “inhibited DEN2V protease”.

In the case of CCCCC(CC)CNC(=N)NC(=N)NCCCCCCNC(=N)NC(=N)NCC(CC)CCCC (stereo not shown) [MS28, Alexidine hydrochloride], the Mechanism (DEN2V NS2B-NS3pro [1]; DEN2V NS2B-NS3pro) is reported as “mixed inhibition mechanism”, the Ki (DEN2V NS2B-NS3pro [1]; Ki2, DEN2V NS2B-NS3pro) is reported as 84 ± 16 µM and the Ki (WNV NS2B-NS3pro; Ki1, WNV NS2B-NS3pro) is reported as 12 ± 1.2 µM. For the same compound, the Ki (WNV NS2B-NS3pro; Ki2, WNV NS2B-NS3pro) was 28 ± 5 µM, the Mechanism (WNV NS2B-NS3pro; WNV NS2B-NS3pro) was “mixed” and the trypsin inhibition [2] was “did not inhibit trypsin”. The “DEN2V protease inhibition (in words)” value (DEN2V NS2B-NS3pro [3]) was “inhibited DEN2V protease” and the “CC50 (cell viability reduced by 50%)” value (cells) was “low micromolar”.
